The test system of this experiment is serum triglyceride levels. Kind of experiment: Rabbit hypercholesteremic model (2% cholesterol diet, 7 weeks): serum triglycerides. The experiment is classed as in vivo, Male New Zealand white rabbits. Particulars: hypercholesterol diet, n = 5, P5P 10 mg/kg/day, simvastatin 5 mg/kg/day oral. As for the experimental part: The anti-atherogenic effects of P5P alone and in combination with simvastatin in a rabbit hypercholesteremic model were determined. The study compared the effects of P5P and simvastatin alone and in combination on atherosclerotic lesion formation, lipid profile (total cholesterol, LDL, HDL, triglycerides and oxidized LDL), homocysteine levels and various markers of inflammation (CRP, IL-1β, IL-6, IFN-γ and TNF-α).
Animals—Male New Zealand white rabbits 2.0-3.0 kg.
Animal Feed—The normocholesterol diet is Co-op Complete Rabbit Feed manufactured by Federated Co-operatives Limited (Saskatchewan). The 2% cholesterol diet is Test Diet 0009459 MRab/2% Chol 3/16 manufactured by Purina Mills (USA).
The rabbits were fed the normocholesterol and 2% cholesterol diet ad libitum. All animals received a timothy cube after blood sampling. […]
Group 3: Hypercholesterol diet+P5P 10 mg/kg/day
Group 4: Hypercholesterol diet+simvastatin 5 mg/kg/day
Group 5: Hypercholesterol diet+P5P 10 mg/kg/day+simvastatin 5 mg/kg/day
The rabbits were fed a normocholesterol or hypercholesterol diet for a total of 7 weeks. The normocholesterol rabbits were treated once per day with 1 ml of ethanol and 5 ml of RO water via a nasogastric tube. The hypercholesterol animals were treated once per day with either P5P (10 mg/kg), simvastatin (5 mg/kg) or a combination of P5P and simvastatin (P5P 10 mg/kg; simvastatin 5 mg/kg) via a nasogastric tube. The P5P was dissolved in 5 ml of 0.05 N NaOH so that the pH of the solution is approximately 7. The simvastatin was dissolved in 1 ml of anhydrous ethanol.
Five ml of blood was collected from the marginal ear vein of the rabbits at 0, 2, 4 and 6 weeks. Prior to blood collection the animals were sedated with 1 mg/kg of acepromazine. Following collection, the serum was separated. The serum is aliquoted (500 μl) and frozen at −80° C. until used for the assaying various lipids (total cholesterol, LDL, HDL, triglycerides, oxidized LDL) and cytokines (CRP, IL-1β, IL-6, IFN-γ and TNF-α).
At 7 weeks, the animals were anesthetized and 10 ml of blood was collected. Then the animals were euthanized, and the heart and thoracic aorta removed. The hearts and aortas were frozen in liquid nitrogen or an ethanol dry ice bath and stored at −80° C. until analyzed.
Test Articles—P5P (pyridoxal 5′-phosphate monohydrate) was purchased from Sigma (P82870). Simvastatin is obtained from ACIC Fine Chemicals Inc. Two test compound vials were provided for each animal for each day. The first vial (small) was diluted in 1 ml of anhydrous ethanol. The second vial was diluted in either 5 ml of RO water or 5 ml of 0.05 N NaOH. The diluent for each vial was clearly marked on the vial. The test solutions were prepared fresh each day just before they were administered to the animals. The stock P5P was stored in a refrigerator at 4° C. under low light conditions. The simvastatin was stored following the manufacture recommendations. The individual test vials were stored in a refrigerator at 4° C. under low light conditions.
Test Article(s) Dose, Route of Administration and Duration—The rabbits were treated orally with the drugs, once per day for a total of 7 weeks. The contents of vial one (small; 1 ml) were given to the animals first, followed by the contents of vial 2 (large; 5 ml). The test compound treatments were followed by a 5 ml RO water chaser.

SMILES strings stand for the structures.

Take `CCC(C)(C)C(=O)O[C@H]1C[C@@H](C)C=C2C=C[C@H](C)[C@H](CC[C@@H]3C[C@@H](O)CC(=O)O3)[C@H]21` [Simvastatin, simvastatin, reference compound]: the “Triglycerides, Week 2” value was found to be 0.986 mmol/L; the “Triglycerides, Week 4” value is 1.588 mmol/L; the “Triglycerides, Week 6” value was found to be 2.158 mmol/L. In addition, the “Triglycerides, Week 7” value (end of study) was found to be 1.766 mmol/L. For the same compound, where the note is “start of study”, the “Triglycerides, Week 0” value is 0.956 mmol/L.

These data come from US20060148763A1, “Compounds and methods for regulating triglyceride levels” (priority 2005, published 2006).
